Measured values published in patent US20210330756A1, “Acetylation of Miro1” (University of South Carolina, priority 2020, published 2021).

What was measured:
[1] = tested on: growth cones of adult DRG neurons; assay: Growth cone area/size of DRG sensory axons (DIC imaging); assay type: cell-based, rat
Experimental: (§1) HDAC6 inhibition increases growth cone size of sensory axons. Given our previous work showing that HDAC6 inhibition allows axons to grow on MAG and CSPG substrates (Rivieccio et al., 2009; Butler et al., 2010), we asked how inhibition of HDAC6 alters axon growth in cultures of adult dorsal root ganglion (DRG) neurons. […] (A) Quantification of neurite length for dissociated DRGs cultured on laminin with addition of HDAC6 inhibitor TubA (10 μm) versus vehicle control (DMSO) over 1 h is shown as average fold-change relative to vehicle±SEM (n≥95 neurons across three independent experiments; NS by one-way ANOVA with Bonferroni post hoc). (B and C) show representative DIC images of distal axons from DRG neurons cultured as in A are shown (B). 1-h TubA treatment appears to increase growth cone size. Analyses of growth cone area across multiple experiments show a significant increase in area after TubA treatment (C). Values are average fold-change±SEM (n≥26 neurons over at least three culture preparations; ***, P≤0.005 by one-way ANOVA with Bonferroni post hoc; scale bar=5 μm; 40×/1.3 NA objective used). […] Prominent HDAC6 signals are seen in distal axons and growth cones (arrows) regardless of TubA exposure. […]
(§2) NF-stained cultures were used for neurite growth analyses. […] The growth cone area was measured using ImageJ software from these annotated DIC images. […]

[2] = tested on: adult dorsal root ganglion (DRG) neurons; assay: Neurite length of dissociated adult DRG neurons cultured on laminin; assay type: cell-based, rat; settings: 10 μM, 1 h
Experimental: as §1, §2

[3] = tested on: sciatic nerve axonal mitochondria; assay: In vivo imaging of axonal mitochondrial transport in sciatic nerve; design: species or system mouse
Experimental: Together, these experiments indicate that HDAC6 activity impacts axonal mitochondrial transport in vitro and in vivo.
Sciatic nerves were exposed in live, isofluorane-anaesthetized animals (female C57BL6/J mice aged 41-42 d after birth) as previously reported (Gibbs et al., 2016; Sleigh and Schiavo, 2016). Briefly, 10-μ1 glass micropipettes (Drummond Scientific; 5-000-1001-X10) were pulled (Mohan et al., 2015) and used to inject 2 μl of 1.5 mM TubA or DMSO (Sigma-Aldrich; D2650) vehicle control in sterile saline (0.9% wt/vol) into the proximal aspect of the exposed sciatic nerve. 2 μM tetramethylrhodamine, ethyl ester, perchlorate (Thermo Fisher Scientific; T669), and 0.1% (wt/vol) bromophenol blue (Sigma-Aldrich; B5525) were included in the injected solution to label mitochondria and confirm successful injection beneath the perineurium, respectively.
Body temperature was maintained using a heat pad during surgery and drug incubation. Sciatic nerves were imaged from 20 to 90 min after injection using an inverted LSM 780 laser scanning microscope (Zeiss) Plan-Apochromat 63×/1.4 NA Oil DIC M27 objective within an environmental chamber prewarmed and set to 37° C. An area containing labeled axons was selected and imaged for 444-1,000 s at 100×digital zoom every ˜4 s (1,024×1,024 pixels, 0.5-μs pixel dwell time, 1% laser power). Four animals were imaged per day (two per treatment). Image series were converted into AVI files, and mitochondrial dynamics were assessed using Kinetic Imaging Software. Mitochondria were included in analyses when they could be tracked for at least five consecutive frames. At least 10 mitochondria (mean of 49.1) across at least three axons (mean of 4.38) per animal were tracked, and all analyses were performed blinded to treatment.

CN1CCc2c(c3ccccc3n2Cc2ccc(C(=O)NO)cc2)C1 [TubA, tubastatin]
time after exposure at which growth cone enlargement was apparent ([1]; 10 μM TubA, time-lapse DIC): ≤ 10 min | growth cone size vs vehicle controls ([1]; 10 μM, 1 h, laminin): significantly larger growth cones | neurite length vs vehicle [2]: did not significantly affect neurite length | pausing of moving mitochondria ([3]; retrogradely versus anterogradely moving, after TubA): significantly increased pausing for retrogradely versus anterogradely moving mitochondria | ratio of anterogradely to retrogradely moving axonal mitochondria ([3]; sciatic nerve injection, 2 μl of 1.5 mM, in vivo imaging): increased | significance of antero/retrograde ratio and speed of movement vs vehicle control ([3]; sciatic nerve injection, in vivo imaging): neither this nor the speed of movement showed significant differences
